Data from the supplement of paper PMC10307832.

Experiments:
Test in all cases: relative viability (nuclei count vs DMSO), 5 days (fraction); higher = more cells survive
Idelalisib + OSI-027 = compound: CC[C@H](Nc1ncnc2[nH]cnc12)c1nc2cccc(F)c2c(=O)n1-c1ccccc1 [Idelalisib] + COc1cccc2cc(-c3nc([C@H]4CC[C@H](C(=O)O)CC4)n4ncnc(N)c34)[nH]c12 [OSI-027] (partner 0.5 µM)
In short: (§1)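 Relative viability equals treated-well nuclei counts divided by vehicle-well nuclei counts. Counts came from 4× images of lung cancer cell lines grown in 1536-well plates for 5 days after pin-tool dosing on the day after seeding. Dosing used one drug alone or a fixed anchor-drug dose plus five library-drug doses (not always all listed) in √10 steps, and values are medians of duplicate plates.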

Pemetrexed + Tozasertib = compound: Nc1nc2[nH]cc(CCc3ccc(C(=O)N[C@@H](CCC(=O)O)C(=O)O)cc3)c2c(=O)[nH]1 [Pemetrexed] + Cc1cc(Nc2cc(N3CCN(C)CC3)nc(Sc3ccc(NC(=O)C4CC4)cc3)n2)n[nH]1 [Tozasertib] (partner 0.1 µM)
In short: as §1

Pemetrexed + Luminespib = compound: Nc1nc2[nH]cc(CCc3ccc(C(=O)N[C@@H](CCC(=O)O)C(=O)O)cc3)c2c(=O)[nH]1 [Pemetrexed] + CCNC(=O)c1noc(-c2cc(C(C)C)c(O)cc2O)c1-c1ccc(CN2CCOCC2)cc1 [Luminespib] (partner 0.01 µM)
In short: as §1

Idelalisib + Pemetrexed = compound: CC[C@H](Nc1ncnc2[nH]cnc12)c1nc2cccc(F)c2c(=O)n1-c1ccccc1 [Idelalisib] + Nc1nc2[nH]cc(CCc3ccc(C(=O)N[C@@H](CCC(=O)O)C(=O)O)cc3)c2c(=O)[nH]1 [Pemetrexed] (partner 0.2 µM)
In short: as §1

Cell Line: UMC-11
- relative viability (Idelalisib + OSI-027; first compound 0.04 µM): 0.429
- relative viability (Idelalisib + OSI-027; first compound 0.1265 µM): 0.491
- relative viability (Idelalisib + OSI-027; first compound 0.4 µM): 0.542
- relative viability (Idelalisib + OSI-027; first compound 1.265 µM): 0.513
- relative viability (Idelalisib + OSI-027; first compound 4 µM): 0.42
- relative viability (Pemetrexed + Tozasertib; first compound 0.002 µM): 0.196
- relative viability (Pemetrexed + Tozasertib; first compound 0.006325 µM): 0.217
- relative viability (Pemetrexed + Tozasertib; first compound 0.02 µM): 0.199
- relative viability (Pemetrexed + Tozasertib; first compound 0.06325 µM): 0.202
- relative viability (Pemetrexed + Tozasertib; first compound 0.2 µM): 0.208
- relative viability (Pemetrexed + Luminespib; first compound 0.002 µM): 0.989
- relative viability (Pemetrexed + Luminespib; first compound 0.006325 µM): 0.972
- relative viability (Pemetrexed + Luminespib; first compound 0.02 µM): 1.03
- relative viability (Pemetrexed + Luminespib; first compound 0.06325 µM): 1.09
- relative viability (Pemetrexed + Luminespib; first compound 0.2 µM): 0.923
- relative viability (Idelalisib + Pemetrexed; first compound 0.04 µM): 0.673
- relative viability (Idelalisib + Pemetrexed; first compound 0.1265 µM): 0.77
- relative viability (Idelalisib + Pemetrexed; first compound 0.4 µM): 0.793
- relative viability (Idelalisib + Pemetrexed; first compound 1.265 µM): 0.839
- relative viability (Idelalisib + Pemetrexed; first compound 4 µM): 0.936
